Assays:
[1] = target: IKca channel (intermediate conductance potassium channel) (Homo sapiens, UniProt O15554); experiment: modified biotin switch; type: cell-based
[2] = target: cystathionine γ-lyase (CSE); experiment: CSE activity assay after pre-incubation with the NO donor S-nitroso-glutathione; type: biochemical

Chain of IKca channel (intermediate conductance potassium channel) (O15554 whole entry): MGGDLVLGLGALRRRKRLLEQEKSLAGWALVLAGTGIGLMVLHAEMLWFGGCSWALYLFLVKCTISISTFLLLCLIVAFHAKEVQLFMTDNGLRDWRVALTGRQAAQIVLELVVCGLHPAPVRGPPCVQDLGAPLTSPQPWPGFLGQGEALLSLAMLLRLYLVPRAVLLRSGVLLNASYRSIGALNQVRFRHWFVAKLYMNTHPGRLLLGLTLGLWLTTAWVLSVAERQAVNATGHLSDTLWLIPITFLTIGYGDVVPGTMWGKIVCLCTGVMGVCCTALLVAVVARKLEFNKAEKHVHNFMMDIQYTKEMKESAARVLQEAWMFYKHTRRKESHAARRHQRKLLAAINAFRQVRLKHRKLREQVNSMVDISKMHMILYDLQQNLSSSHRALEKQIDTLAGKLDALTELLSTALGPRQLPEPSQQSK

Row | Compound | modified biotin switch (S-sulfhydration) assay, DTT-sensitive [1] | IC50 [2] [µM]
1 | S [H2S] | IKca channels from human aortic endothelial cells are sulfhydrated by NaHS in a DTT-sensitive fashion | –
2 | [N]=O [NO] | – | ~0.1

From publication PMC3234531 (2011)
